Patent publication US7083940B2, “Pregnancy-associated plasma protein-A2 (PAPP-A2)” (Como Biotech ApS, priority 2000, dated 2006)

System: rIGFBP-5
Assay: Ligand blotting with radiolabeled IGF-II, activity of PAPP-A2 against IGFBP-5
Format: biochemical
Conditions: medium from cells transfected with pPA2
Protocol: Medium from 293T cells transfected with empty vector (−), or cDNA encoding PAPP-A2 (pPA2) (+) was incubated with each of the six IGFBPs (BP1–BP6), and the activity was assessed by ligand blotting using radiolabeled IGF-II.
Ligand blotting (Conover et al., 1993, J Clin Invest 91, 1129–37) with radiolabeled IGF-II (Bachem) was used to assay for activity against IGFBP-1 (from HepG2 conditioned medium), rIGFBP-2 (GroPep), rIGFBP-3 (gift of D. Powell), rIGFBP-4 (Austral), rIGFBP-5 (gift of D. Andress), and rIGFBP-6 (Austral). […] Experiments were carried out with media from cells transfected with pPA2 or empty vector.

Substance: PAPP-A2: recombinant pregnancy-associated plasma protein-A2, SEQ ID NO:2, metzincin metalloproteinase expressed in 293T cells
- Dependence of cleavage on IGF: independent of the presence of IGF
